Reference: the METLIN SMRT retention time set (Domingo-Almenara et al. 2019)

Test: gradient 5% acetonitrile 3 min, to 50% in 2 min, to 85% in 15 min, held 3 min, 100 µL/min
Settings: column: Zorbax Extend-C18 2.1 x 50 mm; eluents: water / acetonitrile, 0.1% formic acid
How it was run: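 A Zorbax Extend-C18 column (2.1 × 50 mm, 1.8 μm) run at 100 μL/min with water and acetonitrile, both containing 0.1% formic acid, separated mixtures of ~100 pure standards. The HPLC was coupled to a quadrupole time-of-flight mass spectrometer operated in positive and negative ionization mode, with dead and dwell volumes of 40 μL and 900 μL. Each retention time was taken from a computationally picked adduct peak that was then manually inspected.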
In the case of `O=C(CCC1CCCC1)N1CCN(C(=O)c2cc(-c3ccccn3)n[nH]2)CC1`, the RP-LC retention time is reported as 715 s.
In the case of `Cc1ccc(NS(=O)(=O)c2cc(-c3nc(C(C)(C)C)cs3)cs2)c(F)c1`, the RP-LC retention time is reported as 1260 s.
`CCNc1nc(C)cc(N2CCN(S(=O)(=O)c3ccc(-c4csc(C)n4)s3)CC2)n1` showed an RP-LC retention time of 733 s.
In the case of `Cc1[nH]c2ccc(-c3nnc(SCC(=O)NCCc4nc5ccccc5[nH]4)o3)cc2c1C`, the RP-LC retention time is reported as 667 s.
Compound `O=c1c2cc(-c3ccc(Br)cc3)nn2cnn1Cc1nc(-c2ccc3c(c2)OCO3)no1` has an RP-LC retention time of 1160 s.
Work on `O=C(Nc1ccc(F)cc1)c1c(O)c2cccnc2n(-c2ccc(F)cc2)c1=O` yielded an RP-LC retention time of 1200 s.
Compound `O=C(NCc1ccco1)C1CCN(C(=O)c2ncn3c2COC(c2ccccc2)C3)CC1` (stereo not drawn) has an RP-LC retention time of 699 s.
`COc1ccc(-c2nc(-c3cn(Cc4cccc(F)c4)nn3)no2)c(OC)c1` gave an RP-LC retention time of 934 s.
With `Cc1nc(C(=O)Nc2ccc(Cl)c(C)c2)c(C)o1` the RP-LC retention time was 1010 s.
`COc1cc(NS(=O)(=O)c2ccc(-c3c(C)noc3C)cc2)cc(OC)c1OC` showed an RP-LC retention time of 856 s.
`O=C([C@@H]1C[C@H](Oc2cccnc2)CN1C(=O)Cn1c(=O)oc2ccccc21)N1CCCC1` showed an RP-LC retention time of 601 s.
For `CCN1C(=O)c2cc(S(=O)(=O)Nc3ccc(F)c(F)c3)ccc2Oc2cccnc21`, the RP-LC retention time was 1050 s.
For `Cc1noc(-c2ccc(NC(=O)c3cc(=O)c4ccccc4o3)cc2)n1`, the RP-LC retention time was 790 s.
For `Cc1sc2cc(C(=O)N3CCN(c4ccccn4)CC3)[nH]c2c1CN1CCOCC1`, the RP-LC retention time was 568 s.
In the case of `Cc1nnc2ccc(S(=O)(=O)N(Cc3ccccc3)c3ccc(F)cc3)cn12`, the RP-LC retention time is reported as 870 s.
With `Cc1cccc(-n2c(=O)c3c(cc(C)n3C)n(CC(=O)Nc3ccc(Br)cc3F)c2=O)c1` the RP-LC retention time was 963 s.
With `O=C(NCc1cccnc1-c1ccccc1)c1ccc(Br)cc1` the RP-LC retention time was 686 s.
`CCC(C)C(NC(=O)c1ccc(C)cc1)C(=O)Nc1nc2ccccc2[nH]1` (stereo not drawn) gave an RP-LC retention time of 765 s.
In the case of `Cc1nc2cc(-c3noc(-c4ccccc4Br)n3)ccc2n(C)c1=O`, the RP-LC retention time is reported as 948 s.
In the case of `COc1ccc(-c2nc(CN(c3ccccc3)S(=O)(=O)c3cccs3)c(C)o2)cc1OC`, the RP-LC retention time is reported as 1040 s.
In the case of `CCOC(=O)C1CCN(c2cc3c(cc2NC(=O)C2CC2)n(C)c(=O)c(=O)n3C)CC1`, the RP-LC retention time is reported as 758 s.
Compound `Cc1cccc(-c2ncccc2CNS(=O)(=O)c2ccc(C#N)cc2)c1` has an RP-LC retention time of 697 s.
With `COc1ccc(OC)c(NC(=O)NCC(c2cccnc2)c2c[nH]c3ccccc23)c1` (stereo not drawn) the RP-LC retention time was 662 s.
For `Cc1noc([C@@H]2CN(C(=O)CCc3nc4ccccc4s3)C[C@H]2C(N)=O)n1`, the RP-LC retention time was 650 s.
`COc1ccc(NC(=O)N2CCCC(Cn3cnc4cccnc43)C2)cc1OC` (stereo not drawn) showed an RP-LC retention time of 620 s.
Work on `CCOC(=O)c1c(C)n(C)c2ccc(OC(C)C(=O)OC)cc12` (stereo not drawn) yielded an RP-LC retention time of 894 s.
In the case of `NC[C@@H]1O[C@H](C23CC4CC(CC(C4)C2)C3)Cc2c1ccc(O)c2O`, the RP-LC retention time is reported as 787 s.
With `Cc1ccc(NC(=O)Cn2cc3c(n2)CCC(C)C3)cc1C` (stereo not drawn) the RP-LC retention time was 969 s.
For `Cc1ccc(C)c(NC(=O)Cn2cccc2-c2nc(-c3ccc4c(c3)OCO4)no2)c1`, the RP-LC retention time was 1050 s.
`Cc1ccc(-n2nc(C)c(S(=O)(=O)Nc3ccc(S(N)(=O)=O)cc3)c2C)cc1` gave an RP-LC retention time of 765 s.
For `CN(C)C1(CC2CC2)CCN(C(=O)c2ccsc2)CC1`, the RP-LC retention time was 578 s.
With `CSc1ccc(CCNC(=O)c2nnc(-c3ccc(S(=O)(=O)N4CCCCC4)cc3)o2)cc1` the RP-LC retention time was 1090 s.
Compound `CCOCCCNC(=O)C1(C)Cn2c(ccc2-c2ccco2)C(=O)N1c1ccc(OC)c(OC)c1` (stereo not drawn) has an RP-LC retention time of 752 s.
For `O=C(CCC1CCN(c2cc(NC3CC3)ncn2)CC1)NCc1ccccc1Cl`, the RP-LC retention time was 676 s.
In the case of `COc1ccccc1NC(=O)CSc1nc2c(-c3ccccc3)csc2c(=O)n1C`, the RP-LC retention time is reported as 960 s.
Compound `CC(C)NC(=O)Cn1c(=O)cc(-c2nc(C3CC3)no2)c2ccccc21` has an RP-LC retention time of 806 s.
Work on `COc1ccc(N2CCN(c3cc(SCC(=O)Nc4cc(C)cc(C)c4)ncn3)CC2)cc1` yielded an RP-LC retention time of 1060 s.
For `COCCCNC(=O)Cn1c(=O)c2cccn2c2ccc(F)cc21`, the RP-LC retention time was 689 s.
`Cc1ccc(-c2nc3nc(C)cc(N4CCOCC4)n3n2)cc1` showed an RP-LC retention time of 763 s.
In the case of `CCOc1ccc(-c2csc3c(=O)n(CC(C)C)cnc23)cc1OCC`, the RP-LC retention time is reported as 1100 s.
With `CSC(=O)NC(=O)NC(=O)c1ccc([N+](=O)[O-])cc1` the RP-LC retention time was 849 s.
`Cc1oc2c(c1C(=O)Nc1ccc(F)cc1Br)C1=NC(C)(C)CN1C=N2` gave an RP-LC retention time of 671 s.
`COC(=O)c1cccc(NC(=O)Nc2c(-c3cccnc3)[nH]c3ccccc23)c1` showed an RP-LC retention time of 667 s.
Compound `O=C(CN1CCN(Cc2ccc(F)cc2)C1=O)NCc1ccc(F)cc1Cl` has an RP-LC retention time of 844 s.
With `O=C(CCc1c[nH]c2ccccc12)Nc1cccc(-c2nnc3n2CCCC3)c1` the RP-LC retention time was 682 s.
With `O=C(CCC1CCN(c2cc(NC3CC3)ncn2)CC1)N1CCN(c2ncccn2)CC1` the RP-LC retention time was 615 s.
For `Cc1noc(C)c1C(=O)N(C)C1CCc2nnc(C)n2CC1` (stereo not drawn), the RP-LC retention time was 552 s.
With `CCCOc1ccc(CN(C(=O)Cc2coc3ccc(C)cc23)C2CCS(=O)(=O)C2)cc1` (stereo not drawn) the RP-LC retention time was 1130 s.
In the case of `CC(C)CCn1nc2c(S(=O)(=O)N3CCOCC3)cccn2c1=O`, the RP-LC retention time is reported as 758 s.
Compound `O=C(COc1cccc2c1CCN(Cc1ccccc1F)C2=O)NCc1ccco1` has an RP-LC retention time of 790 s.
Compound `CCOc1ccc(-n2c(=O)c3sccc3n(Cc3nc(-c4ccccc4C)no3)c2=O)cc1` has an RP-LC retention time of 1070 s.
In the case of `COc1ccc(C)cc1NC(=O)N1CCC(CC(=O)N2CCCCC2)CC1`, the RP-LC retention time is reported as 811 s.
In the case of `Cc1cc(=O)n(CC(=O)Nc2ccc(C)c(C)c2)c(N2CCCCC2)n1`, the RP-LC retention time is reported as 717 s.
In the case of `c1ccc2c(c1)nnn2-c1ccncc1`, the RP-LC retention time is reported as 699 s.
Work on `COc1ccc(OC)c(CNC(=O)C2CCCN(c3ccc(-c4ccccc4)nn3)C2)c1` (stereo not drawn) yielded an RP-LC retention time of 704 s.
`O=C1C2CC3N1CCC31c3ccccc3-n3c1c2ccc3=O` (stereo not drawn) showed an RP-LC retention time of 721 s.
Compound `CCOC(=O)NCC1CCN(Cc2ccccc2SC)CC1` has an RP-LC retention time of 566 s.
With `CN(C)CCCc1cc(C(=O)Nc2ccc(-c3ccncc3)cc2)ccc1O` the RP-LC retention time was 580 s.
In the case of `Cc1ccc(NC(=O)N2CCc3nc(-c4ccccc4)ncc3C2)c(Cl)c1`, the RP-LC retention time is reported as 1080 s.
For `CCCCOc1nc2c(c(=O)n(C)c(=O)n2C)n1C`, the RP-LC retention time was 874 s.
In the case of `COc1ccc(-c2noc(-c3ccc(NCCCN4CCC(C)CC4)nc3)n2)cc1`, the RP-LC retention time is reported as 666 s.
Compound `Cc1ccc(-c2noc(Cn3c(=O)n(CCc4ccccc4)c(=O)c4sccc43)n2)cc1` has an RP-LC retention time of 1170 s.
`COc1ccc2[nH]c(I)c(CCNC(C)=O)c2c1` showed an RP-LC retention time of 760 s.
In the case of `COC(=O)c1ccccc1S(=O)(=O)N1CCN(Cc2nnnn2-c2ccccc2)CC1`, the RP-LC retention time is reported as 812 s.
`O=C(CCc1nnc2ccc(NCc3ccc(F)cc3)nn12)N1CCN(c2ccccn2)CC1` gave an RP-LC retention time of 612 s.
With `CCOc1ccccc1NC(=O)c1c(O)c2cccnc2n(-c2cccc(F)c2)c1=O` the RP-LC retention time was 1320 s.
In the case of `COc1cccc(C(=O)Nc2cc(-c3ccccn3)no2)c1`, the RP-LC retention time is reported as 788 s.
For `CCOCCCNC(=O)c1cn(C)nc1S(=O)(=O)N1CCN(c2ccccc2OCC)CC1`, the RP-LC retention time was 923 s.
In the case of `Cc1cccc(CNC(=O)C2(C)Cn3cnc(C(=O)NC4CC4)c3C(=O)N2C2CC2)c1` (stereo not drawn), the RP-LC retention time is reported as 706 s.
In the case of `COc1ccc(S(=O)(=O)N2CCC(n3cnnc3-c3ccccc3)CC2)cc1OC`, the RP-LC retention time is reported as 718 s.
Work on `COc1ccccc1-c1nnc(-c2cc(S(=O)(=O)N3CCOCC3)ccc2F)o1` yielded an RP-LC retention time of 828 s.
For `NCCC1CCN(C(=O)Nc2cc(F)ccc2F)CC1`, the RP-LC retention time was 588 s.
Work on `O=C(NCC(F)(F)F)C1CCN(Cc2noc(-c3ccc(F)cc3)n2)CC1` yielded an RP-LC retention time of 642 s.
Work on `CCCCOC(=O)c1ccc(NC(=O)c2cccn(Cc3cccc([N+](=O)[O-])c3)c2=O)cc1` yielded an RP-LC retention time of 1140 s.
With `COc1ccc2cc(C(=O)N3CCC(CC(=O)NCCc4c[nH]c5ccc(Cl)cc45)CC3)[nH]c2c1` the RP-LC retention time was 841 s.
With `CCCS(=O)(=O)Nc1cccc(-c2cn3cccc(C)c3n2)c1` the RP-LC retention time was 624 s.
With `Cc1ccc(NC(=O)C2CCN(C(=O)c3ncn4c3COC(c3ccc(F)cc3)C4)CC2)c(F)c1` (stereo not drawn) the RP-LC retention time was 813 s.
Work on `COC(=O)c1c(NCc2cccc(Br)c2)c2cc(F)ccc2[nH]c1=O` yielded an RP-LC retention time of 831 s.
`COCCNc1ncc(C(=O)O)c(-c2ccc(OC)cc2)n1` showed an RP-LC retention time of 658 s.
For `O=C(Nc1cccc(C(F)(F)F)c1)Nc1cc(Cl)ccc1C(=O)O`, the RP-LC retention time was 1080 s.
Compound `Cc1ccc(-n2nnnc2-c2cccnc2)cc1` has an RP-LC retention time of 649 s.
Work on `Cc1ccc(NC(=O)C(=O)c2ccc[nH]2)cc1` yielded an RP-LC retention time of 894 s.
`COc1cccc(-c2nnc(Cc3nc(-c4cccs4)no3)o2)c1` showed an RP-LC retention time of 929 s.
In the case of `COc1ccc2[nH]cc(CCNC(=O)c3ccc(NC(=O)C4=CSCCO4)cc3)c2c1`, the RP-LC retention time is reported as 800 s.
For `Cc1ccc(CNC(=O)C2CCN(c3cncnc3N3CCOCC3)CC2)o1`, the RP-LC retention time was 605 s.
`O=C(Nc1cccnc1)C1CCCN(c2nnc3ccc(Cl)cn23)C1` (stereo not drawn) gave an RP-LC retention time of 567 s.
In the case of `Cc1ccc(C)c(CNC(=O)c2ccc3c(c2)nc2n3CCN(C(C)C)C2=O)c1`, the RP-LC retention time is reported as 769 s.
Work on `CS(=O)(=O)N1CCC(C(=O)NC2CCCCC2)Oc2ccc(Cl)cc21` (stereo not drawn) yielded an RP-LC retention time of 922 s.
